The target of one experiment is T1, PnpC1C2 (Pseudomonas putida, UniProt C6FI41).
T1 construct: gene pnpC2; two-subunit complex, C-terminal His tag, expressed in E. coli BL21(DE3), Ni-NTA purified; with hydroquinone dioxygenase alpha subunit (hydroquinone 1,2-dioxygenase small subunit)
T1 sequence (C6FI41 1-339): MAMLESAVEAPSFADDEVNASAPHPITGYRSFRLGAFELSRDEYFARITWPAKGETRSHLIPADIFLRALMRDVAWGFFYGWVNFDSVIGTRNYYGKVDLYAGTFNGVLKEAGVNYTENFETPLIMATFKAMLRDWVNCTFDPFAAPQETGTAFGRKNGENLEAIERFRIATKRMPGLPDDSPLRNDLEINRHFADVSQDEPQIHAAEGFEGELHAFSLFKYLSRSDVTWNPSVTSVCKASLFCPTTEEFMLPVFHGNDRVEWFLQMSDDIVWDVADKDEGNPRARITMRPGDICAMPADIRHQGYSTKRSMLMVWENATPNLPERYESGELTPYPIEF
T1 sequence (C6FI40 1-164 partner): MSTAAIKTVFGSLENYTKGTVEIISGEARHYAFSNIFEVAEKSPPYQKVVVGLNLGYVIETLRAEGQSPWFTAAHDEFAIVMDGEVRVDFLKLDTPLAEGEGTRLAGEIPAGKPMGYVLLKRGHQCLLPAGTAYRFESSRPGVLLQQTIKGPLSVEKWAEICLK
The experiment can be described thus: UV spectral change, absorption increase at […] nm. The experiment is classed as biochemical. Particulars: conditions as in an earlier paper.

For a further experiment, the target named is T2, PnpA (Pseudomonas putida, UniProt C6FI48).
T2 construct: His-tagged (pET-pnpAhis), expressed in E. coli BL21(DE3), purified
T2 sequence (C6FI48 1-418): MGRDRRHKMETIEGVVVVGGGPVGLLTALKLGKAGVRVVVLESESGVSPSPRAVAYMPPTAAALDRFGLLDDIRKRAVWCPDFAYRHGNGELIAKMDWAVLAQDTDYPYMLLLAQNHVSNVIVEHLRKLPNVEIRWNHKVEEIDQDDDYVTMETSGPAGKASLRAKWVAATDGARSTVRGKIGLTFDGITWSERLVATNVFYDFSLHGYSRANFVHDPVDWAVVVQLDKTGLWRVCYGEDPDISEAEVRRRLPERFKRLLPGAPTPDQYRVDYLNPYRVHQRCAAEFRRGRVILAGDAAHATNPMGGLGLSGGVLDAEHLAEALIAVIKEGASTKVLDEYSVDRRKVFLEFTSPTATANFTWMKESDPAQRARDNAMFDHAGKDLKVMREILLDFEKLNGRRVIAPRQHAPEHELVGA
The experiment can be described thus: colour change of PNP oxidation by purified enzyme. In kind it is biochemical. Particulars: conditions as in an earlier paper.

As for `Oc1ccc(O)cc1` [hydroquinone], the “UV spectral change, absorption increase at 320 nm” value at PnpC1C2 is “PnpC1C2 and PnpC1C2b both transformed HQ into γ-hydroxymuconic semialdehyde in vitro”. Take `O=[N+]([O-])c1ccc(O)cc1` [para-nitrophenol]: at PnpA, the “colour change of PNP oxidation by purified enzyme” value was “only PnpA had the ability to oxidize PNP”.

Source of the values: PMC4871426, “The Regulation of para-Nitrophenol Degradation in Pseudomonas putida DLL-E4” (PLoS ONE, 2016).
